These are literature values, as cited in patent publication US8288445B2, “Stable pharmaceutical products” (Nycomed GmbH, priority 2003, dated 2012).

For this series the following is noted: disclosed in U.S. Pat. No. 6,268,533 and WO 00/21487.

Each structure is given as a SMILES string.

Take `COc1ccc(C[C@@H](C)NC[C@H](O)c2ccc(O)c(NC=O)c2)cc1.O=C(O)C(O)C(O)C(=O)O` [L-(+)-tartrate salt of R,R-formoterol]: the hygroscopicity result is “non-hygroscopic”.
